Target: T1, JAK3 (Homo sapiens, UniProt P52333)
T1 construct: purchased Thermo Fisher Scientific (Life Technologies) SelectScreen
Experiment: SelectScreen Z'LYTE
Type: biochemical
Outline: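 NU5455 was profiled across the SelectScreen Broad panel of kinase activity and binding assays. Z'LYTE reactions such as CSF1R ran at apparent Km ATP, while the Adapta CAMK1 assay used ATP listed as 10. Values are given as percent.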

T1 sequence (P52333 whole entry): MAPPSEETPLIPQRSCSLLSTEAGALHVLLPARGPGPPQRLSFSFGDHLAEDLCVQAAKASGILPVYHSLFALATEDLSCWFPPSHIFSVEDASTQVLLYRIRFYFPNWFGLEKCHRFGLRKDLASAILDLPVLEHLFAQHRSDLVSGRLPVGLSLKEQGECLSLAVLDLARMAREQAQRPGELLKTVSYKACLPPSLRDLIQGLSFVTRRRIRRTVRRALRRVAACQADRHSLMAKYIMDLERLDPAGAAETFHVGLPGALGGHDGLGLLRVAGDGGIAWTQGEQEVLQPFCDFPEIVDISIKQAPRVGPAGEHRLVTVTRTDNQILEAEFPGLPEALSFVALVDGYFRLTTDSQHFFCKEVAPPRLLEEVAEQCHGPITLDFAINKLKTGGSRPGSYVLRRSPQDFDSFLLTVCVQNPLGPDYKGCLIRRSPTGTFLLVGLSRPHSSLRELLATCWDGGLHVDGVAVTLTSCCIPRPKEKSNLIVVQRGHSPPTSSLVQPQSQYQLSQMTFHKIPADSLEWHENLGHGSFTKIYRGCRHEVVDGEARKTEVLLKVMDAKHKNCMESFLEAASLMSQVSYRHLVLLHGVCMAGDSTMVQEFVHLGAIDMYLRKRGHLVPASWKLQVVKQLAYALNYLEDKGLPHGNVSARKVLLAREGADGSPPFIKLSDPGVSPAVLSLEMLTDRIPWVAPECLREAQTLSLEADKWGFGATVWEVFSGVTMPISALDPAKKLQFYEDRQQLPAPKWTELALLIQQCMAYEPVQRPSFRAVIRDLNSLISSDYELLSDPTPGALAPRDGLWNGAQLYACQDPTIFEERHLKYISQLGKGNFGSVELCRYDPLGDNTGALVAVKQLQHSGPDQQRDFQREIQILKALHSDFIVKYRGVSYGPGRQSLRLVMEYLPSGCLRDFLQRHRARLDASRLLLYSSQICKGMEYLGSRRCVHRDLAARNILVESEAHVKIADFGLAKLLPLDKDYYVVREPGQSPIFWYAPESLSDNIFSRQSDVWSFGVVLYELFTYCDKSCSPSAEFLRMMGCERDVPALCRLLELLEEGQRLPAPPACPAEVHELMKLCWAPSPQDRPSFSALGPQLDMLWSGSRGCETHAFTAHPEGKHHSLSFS

`CN(C(=O)CN1CCOCC1)c1ccc2sc3c(-c4cccc5c(=O)cc(N6CC7CCC(C6)O7)oc45)cccc3c2c1` [NU5455] gave an inhibition at 1 µM of 6%.

— publication PMC6934184, “Selective DNA-PKcs inhibition extends the therapeutic index of localized radiotherapy and chemotherapy” (The Journal of Clinical Investigation, 2019)
